Measured values from ChEMBL document CHEMBL4004885, “Synthesis and biological activity of salinomycin-hydroxamic acid conjugates” (Bioorg Med Chem Lett, 2017).
pIC50: −log10 of the molar value. Active and inactive are the calls of the source. The rule behind the calls is not given here.

Key:
[1] = test system: HGC-27; experiment: Cytotoxicity against human HGC27 cells assessed as decrease in cell proliferation after 48 hrs by MTT assay; assay type: functional, cell-based; settings: HGC-27, 48 h
[2] = Chemical stability in RPMI1640 medium at 10 mg after 72 hrs by 1H NMR method; assay type: physicochemical
[3] = test system: HT-29; experiment: Cytotoxicity against human HT-29 cells assessed as decrease in cell proliferation after 48 hrs by MTT assay; assay type: functional, cell-based; settings: HT-29, 48 h
[4] = test system: MDA-MB-231; experiment: Cytotoxicity against human MDA-MB-231 cells assessed as decrease in cell proliferation after 48 hrs by MTT assay; assay type: functional, cell-based; settings: MDA-MB-231, 48 h
[5] = test system: HGC-27; experiment: Potency index, ratio of salinomycin IC50 to test compound IC50 for human HGC27 cells; assay type: functional
[6] = test system: MDA-MB-231; experiment: Potency index, ratio of salinomycin IC50 to test compound IC50 for human MDA-MB-231 cells; assay type: functional
[7] = test system: HT-29; experiment: Potency index, ratio of salinomycin IC50 to test compound IC50 for human HT-29 cells; assay type: functional
[8] = test system: MDA-MB-231; experiment: Cytotoxicity against human MDA-MB-231 cells assessed as decrease in cell proliferation after 48 hrs in presence of salinomycin by MTT assay; assay type: functional, cell-based; settings: MDA-MB-231, 48 h
[9] = test system: MDA-MB-231; experiment: Cytotoxicity against human MDA-MB-231 cells assessed as decrease in cell proliferation at 10 uM after 48 hrs in presence of salinomycin by MTT assay; assay type: functional, cell-based

Row | Stability [2] | Structure (SMILES) | pIC50 [1] | pIC50 [3] | pIC50 [4] | Ratio IC50 [5] | Ratio IC50 [6] | Ratio IC50 [7] | pIC50 [8] | Activity [9]
1 | Stable | C/C=C/C=C/C(=O)NOC(=O)[C@H](CC)[C@H]1CC[C@H](C)[C@H]([C@@H](C)[C@H](O)[C@H](C)C(=O)[C@H](CC)[C@H]2O[C@]3(C=C[C@@H](O)[C@]4(CC[C@@](C)([C@H]5CC[C@](O)(CC)[C@H](C)O5)O4)O3)[C@H](C)C[C@@H]2C)O1 | 5.58 | 5.64 | 5.42 | – | – | – | – | –
2 | Stable | CC[C@@H](C(=O)[C@@H](C)[C@@H](O)[C@H](C)[C@@H]1O[C@@H]([C@@H](CC)C(=O)ONC(=O)Cc2ccccc2)CC[C@@H]1C)[C@H]1O[C@]2(C=C[C@@H](O)[C@]3(CC[C@@](C)([C@H]4CC[C@](O)(CC)[C@H](C)O4)O3)O2)[C@H](C)C[C@@H]1C | 5.89 | 6.05 | 6.00 | 1.5 - 7 | 1.5 - 7 | 1.5 - 7 | – | –
3 | – | O=C(NO)c1ccccc1 [BENZOHYDROXAMATE] | – | – | – | – | – | – | 5.01 | inactive
4 | – | O=C(Cc1ccccc1)NO [PHENYLACETOHYDROXAMIC ACID] | – | – | – | – | – | – | 5.01 | inactive
5 | Stable | CC[C@@H](C(=O)[C@@H](C)[C@@H](O)[C@H](C)[C@@H]1O[C@@H]([C@@H](CC)C(=O)ONC(=O)Cc2ccccc2Br)CC[C@@H]1C)[C@H]1O[C@]2(C=C[C@@H](O)[C@]3(CC[C@@](C)([C@H]4CC[C@](O)(CC)[C@H](C)O4)O3)O2)[C@H](C)C[C@@H]1C | 6.12 | 6.10 | 6.03 | – | – | – | – | –
6 | – | CC(=O)O[C@H]1C(=O)[C@@]2(C)[C@H]([C@H](OC(=O)c3ccccc3)[C@]3(O)C[C@H](OC(=O)[C@H](O)[C@@H](NC(=O)c4ccccc4)c4ccccc4)C(C)=C1C3(C)C)[C@]1(OC(C)=O)CO[C@@H]1C[C@@H]2O [PACLITAXEL] | – | – | 7.10 | – | – | – | – | –
7 | Stable | CC[C@@H](C(=O)[C@@H](C)[C@@H](O)[C@H](C)[C@@H]1O[C@@H]([C@@H](CC)C(=O)ONC(=O)CCc2ccccc2)CC[C@@H]1C)[C@H]1O[C@]2(C=C[C@@H](O)[C@]3(CC[C@@](C)([C@H]4CC[C@](O)(CC)[C@H](C)O4)O3)O2)[C@H](C)C[C@@H]1C | 5.98 | 6.10 | 5.72 | 1.5 - 7 | 1.5 - 7 | 1.5 - 7 | – | –
8 | Stable | CC[C@@H](C(=O)[C@@H](C)[C@@H](O)[C@H](C)[C@@H]1O[C@@H]([C@@H](CC)C(=O)ONC(=O)c2ccccc2)CC[C@@H]1C)[C@H]1O[C@]2(C=C[C@@H](O)[C@]3(CC[C@@](C)([C@H]4CC[C@](O)(CC)[C@H](C)O4)O3)O2)[C@H](C)C[C@@H]1C | 6.04 | 6.07 | 5.65 | 1.5 - 7 | 1.5 - 7 | 1.5 - 7 | – | –
9 | – | C/C=C/C=C/C(=O)NO | – | – | – | – | – | – | 5.10 | inactive
10 | Stable | CC[C@@H](C(=O)[C@@H](C)[C@@H](O)[C@H](C)[C@@H]1O[C@@H]([C@@H](CC)C(=O)ONC(C)=O)CC[C@@H]1C)[C@H]1O[C@]2(C=C[C@@H](O)[C@]3(CC[C@@](C)([C@H]4CC[C@](O)(CC)[C@H](C)O4)O3)O2)[C@H](C)C[C@@H]1C | 5.65 | 5.63 | 5.42 | – | – | – | – | –
11 | Stable | CC[C@@H](C(=O)[C@@H](C)[C@@H](O)[C@H](C)[C@@H]1O[C@@H]([C@@H](CC)C(=O)ONC(=O)/C=C/c2ccccc2)CC[C@@H]1C)[C@H]1O[C@]2(C=C[C@@H](O)[C@]3(CC[C@@](C)([C@H]4CC[C@](O)(CC)[C@H](C)O4)O3)O2)[C@H](C)C[C@@H]1C | 5.14 | 5.14 | 5.02 | – | – | – | – | –
12 | – | O=C(NO)c1ccc(Br)cc1 | – | – | – | – | – | – | < 5.00 | inactive
13 | Stable | CC[C@@H](C(=O)[C@@H](C)[C@@H](O)[C@H](C)[C@@H]1O[C@@H]([C@@H](CC)C(=O)ONC(=O)c2ccc(Br)cc2)CC[C@@H]1C)[C@H]1O[C@]2(C=C[C@@H](O)[C@]3(CC[C@@](C)([C@H]4CC[C@](O)(CC)[C@H](C)O4)O3)O2)[C@H](C)C[C@@H]1C | 6.29 | 6.15 | 6.03 | 7 | 7 | – | – | –
14 | – | O=C(/C=C/c1ccccc1)NO | – | – | – | – | – | – | 5.05 | inactive
15 | – | O=C(Cc1ccccc1Br)NO | – | – | – | – | – | – | < 5.00 | inactive
16 | Stable | CC[C@@H](C(=O)[C@@H](C)[C@@H](O)[C@H](C)[C@@H]1O[C@@H]([C@@H](CC)C(=O)ONC(=O)c2ccccc2O)CC[C@@H]1C)[C@H]1O[C@]2(C=C[C@@H](O)[C@]3(CC[C@@](C)([C@H]4CC[C@](O)(CC)[C@H](C)O4)O3)O2)[C@H](C)C[C@@H]1C | 6.04 | 6.06 | 5.56 | – | – | – | – | –
17 | Stable | CCCCCCCC(=O)NOC(=O)[C@H](CC)[C@H]1CC[C@H](C)[C@H]([C@@H](C)[C@H](O)[C@H](C)C(=O)[C@H](CC)[C@H]2O[C@]3(C=C[C@@H](O)[C@]4(CC[C@@](C)([C@H]5CC[C@](O)(CC)[C@H](C)O5)O4)O3)[C@H](C)C[C@@H]2C)O1 | 5.87 | 6.02 | 5.57 | 1.5 - 2.5 | 1.5 - 2.5 | 1.5 - 2.5 | – | –

Row | Structure (SMILES) | Stability [2] | pIC50 [1] | pIC50 [3] | pIC50 [4] | Ratio IC50 [5] | Ratio IC50 [6] | Ratio IC50 [7] | pIC50 [8] | Activity [9]
18 | CC[C@@H](C(=O)[C@@H](C)[C@@H](O)[C@H](C)[C@@H]1O[C@@H]([C@@H](CC)C(=O)O)CC[C@@H]1C)[C@H]1O[C@]2(C=C[C@@H](O)[C@]3(CC[C@@](C)([C@H]4CC[C@](O)(CC)[C@H](C)O4)O3)O2)[C@H](C)C[C@@H]1C [SALINOMYCIN] | Stable | 5.59 | 5.84 | 5.16 to 5.19 | – | – | – | – | –
